Key:
[1] = system: human PMN transmigration across intestinal T84 cell monolayers; test: PMN transmigration across intestinal T84 cell monolayers (in-vitro model of colitis); type: cell-based; conditions: for attenuation of PMN transepithelial migration: FIG. 2A, 2B
Source text: Recruitment of polymorphonuclear neutrophils (PMN's) across intestinal epithelia and into the lumen, resulting in mucosal ulcerations or frank crypt abscesses, occurs in a broad spectrum of infectious, inflammatory, and allergic diarrheal states, including patients with inflammation of surgically constructed ileal reservoirs (“pouchitis”). The transmigration of PMN's across the epithelial barrier represents the pathognomonic feature of acute and active chronic intestinal inflammation. Since CLT has been previously shown to inhibit PMN chemotaxis in-vitro, this study tested if CLT may also be efficacious in attenuating PMN transmigration in an established in-vitro model of colitis using intestinal T84 cell monolayers.
The efficacy of CLT was compared to other antibiotic (metronidazole) and steroid (prednisone) agents that currently represent the standards of care for the topical or systemic therapy of pouchitis. […] […] As such, topical CLT treatment represents an attractive alternative for patients whose pouchitis disease has proven to be refractory to standard antibiotic or anti-inflammatory regimens. CLT may inhibit PMN transmigration by inhibiting the operation of plasma membrane K^+ or Ca^++ channels that are likely required to accommodate the volume changes necessary for PMN transmigration through epithelial intercellular tight junctions.

[2] = cited from earlier work
IL-8 within Calu-3 cells = test: IL-8 in Calu-3 cell lysates (ELISA); type: cell-based; conditions: FIG. 5
[3] = system: fecal lactoferrin, a marker of white blood cell excretion (PMN transmigration); test: Fecal lactoferrin in pouchitis patients treated with CLT suppositories; type: in vivo, human; conditions: in 6 of 8 subjects studied; rectal suppository
Protocol: (§1) In this study, subjects were treated with escalating doses of study drug: Step A (500 mg rectal suppositories applied twice daily); Step B (750 mg rectal suppositories applied twice daily); Step C (1,500 mg delivered twice daily). Few parameters were measured including fecal lactoferrin, a marker of white blood cell excretion, to assess the effects of topical CLT therapy on PMN transmigration in patients with pouchitis. This assay has been previously validated as a quantitative biochemical measure of PMN transmigration in patients with infectious colitis and inflammatory bowel disease.

[4] = cited from earlier work; remark: listed apart in the source
[5] = system: pediatric and adult patients with active pouchitis; test: Safety and clinical outcome of rectal CLT suppositories, open-labeled dose escalating trial; type: in vivo, human
Protocol: (§2) The safety and efficacy of topical CLT therapy was also evaluated (delivered as a rectal suppository) in pediatric and adult patients with active pouchitis. In this study, subjects progressed through three escalating dosing levels: Step A (500 mg rectal suppositories applied twice daily); Step B (750 mg rectal suppositories applied twice daily); Step C (1,500 mg delivered twice daily). Serum levels (measured using a previously validated HPLC assay) were obtained within 3 to 6 hours after administering the morning (8 AM) dose of CLT and are presented in Table 2.
Rectal CLT delivered as a suppository, toxicity.
as §1

[6] = cited from earlier work; remark: listed apart in the source
[7] = Serum CLT levels after rectal CLT suppositories (HPLC assay); type: in vivo, human
Protocol: as §2

[8] = oral CLT, experimental animals; cited from earlier work
[9] = system: IL-8 secretion in Calu-3 cells; test: IL-8 in basolateral supernatants of Calu-3 cells (ELISA); type: cell-based; conditions: for inhibition of secreted IL-8: Calu-3 cells stimulated with Salmonella, 30 μM test compound, 5 hours, FIG. 4
Protocol: Calu-3 cells were plated at subconfluency onto Costar inserts (3.0 μm membrane pore size) using standard techniques. After 24 hours, the apical well media was aspirated, and the Calu-3 cells were permitted to grow at the air/media interface. Basolateral media was changed every 2-3 days until they had grown into confluent monolayers (typically 7-10 days). Pathogenic Salmonella typhi were grown in Luria's both overnight at 37° C. (on the night prior to experimentation). The bacteria were washed twice in approximately 20 ml Hanks Balanced Salt Solution (HBSS). Prior to use, bacteria were spun down and resuspended in a total of 10 ml HBSS.
On the day of experimentation, inserts were washed in HBSS and placed into wells containing HBSS with either vehicle (0.0015% ethanol) or 30 μM of specific imidazole or non-imidazole containing test compound (all compounds were diluted from 20 mM working stock). 200 μL of bacteria were then loaded onto the apical compartment, and the cells were allowed to incubate for 5 hours. The basolateral buffer solutions from each insert were subsequently aspirated into eppendorfs and stored at −20° C. Calu-3 filters were cut and rotated for 30 minutes in 250 μL of lysis buffer [10 mL of PBS containing 1 Complete Protease Inhibitor Cocktail Tablet (Roche Pharmaceuticals) tablet and […]] at 4° C., spun at 14,000 for 20 minutes, and the clarified supernatant was stored at −20° C. Supernatant and lysate IL-8 protein content was measured by ELISA using standard techniques.

[10] = oral CLT 60-90 mg/Kg body weight/day; cited from earlier work
[11] = Safety laboratory data for CLT retention enemas; type: in vivo, human; conditions: change from baseline; retention enemas daily 3500-4000 mg; n=9
Protocol: In addition to efficacy data, safety data was also gathered for the use of CLT in retention enemas administered daily in a dose of 3500-4000 mg in the same group of patients. The following parameters were measured: urea nitrogen, Creatinine, aspartate aminotransferase (AST or SGOT), alanine aminotransferase (ALT or SGPT), alkaline phosphatase (Alk Phos), Total Bilirubin, Direct Bilirubin, Albumin, and Hematocrit.

[12] = oral CLT; mice, rats, and rabbits; cited from earlier work
[13] = system: IL-8 secretion from cultured intestinal (T84) epithelia; test: IL-8 secretion from cultured intestinal epithelial T84 cells; type: cell-based; conditions: T84 cells 30 minutes with CLT (30 μM) prior to stimulation with PMA, TNF or Salmonella typhimurium; each agonist; FIG. 3
Protocol: Intestinal epithelial cells play an active role in the mediation of intestinal inflammation through the production and regulated secretion of a variety of pro-inflammatory cytokines including IL-8. […] In these experiments, cultured intestinal epithelial T84 cells were incubated for 30 minutes with CLT (30 μM) prior to stimulation with either the protein kinase C stimulator PMA, the pro-inflammatory cytokine TNF, or a strain of pathogenic Salmonella typhimurium.

[14] = PMN's and T84 cells incubated with 30 μM of study drug for 30 minutes
[15] = after application of one vaginal tablet

Clc1ccccc1C(c1ccccc1)(c1ccccc1)n1ccnc1 [CLT, clotrimazole]
attenuation of PMN transepithelial migration [1, 14]: more potent
inhibition of transepithelial migration ([1]; incubation of T84 monolayers alone with CLT, prior to layering of untreated PMN's, compared with PMN pretreatment, FIG. 1): equal or greater extent
PMN transmigration ([1]; pretreatment of PMN's alone with CLT (30 μM) for 30 minutes, FIG. 1): inhibited significantly
serum CLT levels on continued therapy ([2]; after one week of continued daily therapy with oral tablets): seemed to decline
adverse effect after first dose ([2]; normal volunteers, oral CLT in oil form, first dose of 1,000 mg): severe vertigo
time to disappearance of all neurological symptoms after discontinuing CLT therapy ([2]; normal volunteers, oral CLT in oil form): ≤ 24 hours
effect on intracellular IL-8 (IL-8 within Calu-3 cells; PMA stimulation): no effect
decrease in IL-8 in Calu-3 cell lysates (IL-8 within Calu-3 cells; Salmonella stimulation, 30 μM test compound, 5 hours): virtually no decrease
reduction of PMN excretion (fecal lactoferrin) [3]: 77%
side effects of mucosal preparations ([4]; 1% vaginal cream, 100 mg and 500 mg tablets): minimal side effects
concurrent plasma levels [4, 15]: lower than 0.01 μg/ml
time fungicidal concentrations of CLT detected in vaginal fluid [4, 15]: up to 3 days
central nervous system abnormalities ([4]; topical application of CLT): No central nervous system abnormalities
adverse effect of CLT therapy ([5]; subject one): no significant adverse effect
changes in urinary sediment or serum BUN or creatinine values ([5]; subjects other than ZP): No other subjects participating in the study demonstrated any significant changes
tolerability ([5]; topical CLT delivered as a rectal suppository, pediatric and adult patients): generally well tolerated
serum levels ([6]; adults, oral dose of 200 mg of CLT): 0.2 to 0.35 µg/mL
drug excreted unchanged in the urine ([6]; oral CLT): only a small fraction
route of elimination ([6]; oral CLT): largely in the feces via biliary excretion
blood levels in oil solvent relative to tablet forms ([6]; oral, drug delivered in an oil solvent vs tablet): 3-4 times higher
Serum CLT levels, Step A ([7]; 500 mg rectal suppositories twice daily, 3 to 6 hours after morning dose, one line per subject): below the level of detection
systemic absorption from ileal pouches (measured as serum CLT concentration) ([7]; rectal suppository): generally poor systemic absorption
serum CLT level at the time of renal diagnosis ([7]; subject two, CLT suppositories): 0.08 µM
subacute and chronic toxicity, organs involved [8]: liver (degenerative changes) and the adrenal gland (increased fat deposition)
time to reversal of liver and adrenal changes after discontinuation of therapy [8]: ≤ 6 months
inhibition of secreted IL-8 [9]: High level of IL-8 inhibition
IL-8 in supernatants, time-course ([9]; at 5 hours, Calu-3 cells pretreated, FIGS. 6 and 7): no IL-8 in the supernatants
patients reporting gastrointestinal complaints (nausea, vomiting, and diarrhea) [10]: 13%
patients who developed chemical cystitis [10]: 4.4%
patients who developed contact dermatitis [10]: 2.2%
patients who found the therapy intolerable [10]: 6.5%
patients who tolerated CLT therapy moderately well [10]: 18.5%
patients who tolerated CLT therapy well [10]: 64%
ALBUMIN, Change, MAX [11]: 1.1 G/DI
ALBUMIN, Change, MEAN [11]: 0.1 G/DI
ALBUMIN, Change, MEDIAN [11]: 0.0 G/DI
ALBUMIN, Change, MIN [11]: −0.4 G/DI
ALKALINE PHOSPHATASE, Change, MAX [11]: 37.0 U/L
ALKALINE PHOSPHATASE, Change, MEAN [11]: −2.4 U/L
ALKALINE PHOSPHATASE, Change, MEDIAN [11]: 1.0 U/L
ALKALINE PHOSPHATASE, Change, MIN [11]: −60.0 U/L
CREATININE, Change, MAX [11]: 0.1 mg/dL
CREATININE, Change, MEAN [11]: -0.0 mg/dL
CREATININE, Change, MEDIAN [11]: -0.1 mg/dL
CREATININE, Change, MIN [11]: -0.2 mg/dL
DIRECT BILIRUBIN, Change, MAX [11]: 0.1 mg/dL
DIRECT BILIRUBIN, Change, MEAN [11]: -0.0 mg/dL
DIRECT BILIRUBIN, Change, MEDIAN [11]: 0.0 mg/dL
DIRECT BILIRUBIN, Change, MIN [11]: -0.1 mg/dL
HEMATOCRIT, Change, MAX [11]: 5.9%
HEMATOCRIT, Change, MEAN [11]: −0.5%
HEMATOCRIT, Change, MEDIAN [11]: 0.5%
HEMATOCRIT, Change, MIN [11]: −4.7%
SGOT (AST), Change, MAX [11]: 8.0 U/L
SGOT (AST), Change, MEAN [11]: −2.2 U/L
SGOT (AST), Change, MEDIAN [11]: −1.0 U/L
SGOT (AST), Change, MIN [11]: −16.0 U/L
SGPT (ALT), Change, MAX [11]: 8.0 U/L
SGPT (ALT), Change, MEAN [11]: 0.9 U/L
SGPT (ALT), Change, MEDIAN [11]: 0.0 U/L
SGPT (ALT), Change, MIN [11]: −6.0 U/L
TOTAL BILIRUBIN, Change, MAX [11]: 0.2 mg/dL
TOTAL BILIRUBIN, Change, MEAN [11]: -0.0 mg/dL
TOTAL BILIRUBIN, Change, MEDIAN [11]: 0.0 mg/dL
TOTAL BILIRUBIN, Change, MIN [11]: -0.5 mg/dL
UREA NITROGEN (BUN), Change, MAX [11]: 4.0 mg/dL
UREA NITROGEN (BUN), Change, MEAN [11]: 0.1 mg/dL
UREA NITROGEN (BUN), Change, MEDIAN [11]: 0.0 mg/dL
UREA NITROGEN (BUN), Change, MIN [11]: -5.0 mg/dL
LD50 [12]: 700-1,000 mg/Kg
IL-8 secretion [13]: inhibited completely

C[C@]12C=CC(=O)C=C1CC[C@@H]1[C@@H]2C(=O)C[C@@]2(C)[C@H]1CC[C@]2(O)C(=O)CO [prednisone]
attenuation of PMN transepithelial migration [1, 14]: no attenuation

c1c[nH]cn1 [imidazole]
inhibition of secreted IL-8 [9]: Considerably less inhibition

OC(Cn1cncn1)(Cn1cncn1)c1ccc(F)cc1F [fluconazole]
inhibition of secreted IL-8 [9]: Considerably less inhibition

Cc1ncc([N+](=O)[O-])n1CCO [metronidazole]
inhibition of PMN transmigration ([1]; PMN's and T84 cells incubated with 30 μM of study drug for 30 minutes, FIG. 2B): 30-40%

CCC(C)n1ncn(-c2ccc(N3CCN(c4ccc(OCC5COC(Cn6cncn6)(c6ccc(Cl)cc6Cl)O5)cc4)CC3)cc2)c1=O (stereo not shown) [itraconazole]
inhibition of secreted IL-8 [9]: No inhibition

— patent US9072728B2, “Treatment of severe distal colitis” (priority 2003, dated 2015)
